In patent US6340594B1, “Production of desiccation-tolerant gymnosperm embryos” (CellFor, Inc., priority 1991, dated 2002):

Experiments:
Type in all cases: cell-based
[1] = tested on: white spruce somatic embryos; test: Somatic embryo maturation with PEG-4000 (maturation frequency); conditions: preliminary experiments
Experimental: Maturation of somatic embryos was carried out using methods modified from Attree et al. (1990). Suspension cultured somatic embryos were washed and resuspended (20% w/v) in half-strength PGR-free BM containing 3% sucrose, to remove the previous PGRs, then 0.75 ml aliquots were pipetted onto filter paper supports (Whatman no. 2) on the surface of maturation medium. The supports facilitated subsequent transfers to fresh media. To determine the mean number of somatic embryos plated, 10 μl samples of the 20% suspension were stained with acetocarmine (B.D.H.) and counted (repeated 15 times). The plated somatic embryos were maintained on the maturation medium for 4 weeks in the dark. To test the effect of increased osmoticum, the following concentrations of PEG-4000 (Fluka AG) were included in the maturation medium; 0, 2.5, 5.0, 7.5 and 10% (w/v) (25 replicates per treatment). Maturation frequencies per treatment were calculated as the percent mean number of somatic embryos that matured to normal-looking cotyledonary embryos. Maturation frequency results are shown in FIG. 1 (±confidence limits, P=0.05)
The application of PEG-4000 in the presence of 16 μM ABA for 28 d promoted the maturation of white spruce somatic embryos (FIG. 1). The mean number of immature somatic embryos plated per replicate was 560, and maturation results are based upon a total of 4087 mature embryos recovered. […]

[2] = tested on: white spruce somatic embryos; test: Molecular size threshold of solutes for promoting maturation; conditions: 20 μM ABA; for Mature embryos per replicate (± SE): solute 7.5% added to 3% sucrose base, 9 weeks; for recovery of mature embryos: solute at 2.5 and 5% (w/v), 3% sucrose base
Experimental: In order to determine the effective molecular weight and size range of solutes that promote the maturation of immature white spruce somatic embryos, they were matured in half-strength LP maturation medium containing a range of different solutes of differing molecular weight. Five replicates were prepared per treatment, and treatments were repeated twice. […] The treatment time was 9 weeks. […] The somatic embryos remained wet throughout the maturation treatment which led to poorly formed embryos at low frequency. […] For all treatments, only normal looking cotyledonary stage opaque white embryos were scored and used for lipid analyses. Levels of lipid triacylglycerols (TAGs) were analyzed as described later and results provided are means of two replicates.

[3] = tested on: white spruce somatic embryos; test: Lipid (TL, TAG) content and fatty acid composition of somatic embryos; conditions: 7.5% PEG, 8 weeks; for Fatty acid composition of TAG (%) 18:2^b: FA col 7/9; for Fatty acid composition of TAG (%) ΣC-20, 22^c: FA col 9/9
Experimental: Experiments were set up to observe the effects of different culture conditions on somatic embryo lipid biosynthesis. […] Sigma, St Louis, USA). […] Somatic embryos were maintained on these media for 4 weeks in the dark prior to lipid analysis. […] The lipid contents of immature somatic embryos from suspension culture were also determined. Investigations were conducted to observe the effects of different ABA concentrations, in the presence of PEG, on lipid biosynthesis. […] Matured somatic embryos were transferred on their filter-paper supports to unsealed petri dishes which were then placed within the 81% r.h. desiccator. Total secondary desiccation treatment time was 2 weeks. […] Results were compared to those of somatic embryos matured under the same conditions but not further desiccated. The whole white spruce seeds, isolated zygotic embryos, somatic embryos from the various treatments, and regenerated plantlets and zygotic seedlings were counted, blotted dry, and fresh weights determined. The samples were then placed in an oven at 80° C. for 24 h and dry weights recorded. Lipids were extracted from fresh tissues by the hexane/isopropane method of Hara and Radin (1978), after first placing the samples in boiling isopropane for 10 min. TAGs were separated from total lipid extracts by thin layer chromatography using […] 60 plates (Mandel Scientific Co., Toronto, Canada). […] TAGs were identified using authentic standards and scraped from the plates using a razor blade. Fatty acid methyl esters ([…] prepared from TAGs and total lipid extracts, as previously described (Pomeroy et al. 1991). […] Each lipid extract sample was divided into 2-3 replicates for analysis, and experiments were repeated three times. Results shown are means of one experiment.

[4] = ABA 12 μM, desiccated (D) 2 weeks 81% r.h.
[5] = ABA 16 μM, desiccated (D) 2 weeks 81% r.h.
[6] = ABA 24 μM, desiccated (D) 2 weeks 81% r.h.
[7] = ABA 32 μM, desiccated (D) 2 weeks 81% r.h.

Structure (SMILES): OC[C@H]1O[C@@](CO)(O[C@H]2O[C@H](CO)[C@@H](O)[C@H](O)[C@H]2O)[C@@H](O)[C@@H]1O [Sucrose, sucrose]
- maturation frequencies, visual comparison ([1]; 6% sucrose): lower maturation frequencies
- growth, visual comparison ([1]; 9% sucrose): no growth
- Mature embryos per replicate (± SE) [2]: 0
- recovery of mature embryos [2]: did not result in recovery of any mature embryos

Structure (SMILES): OC[C@@H](O)[C@@H](O)[C@H](O)[C@H](O)CO [Mannitol, mannitol]
- Mature embryos per replicate (± SE) [2]: 0
- recovery of mature embryos [2]: did not result in recovery of any mature embryos

Structure (SMILES): CC1=CC(=O)CC(C)(C)C1(O)/C=C/C(C)=C\C(=O)O (racemic) [ABA, abscisic acid]
- TAG % d wt [3, 4]: 26 % d wt
- TAG μg (embryo)^−1 [3, 4]: 186.6 μg (embryo)^−1
- TAG/TL % [3, 4]: 85%
- TL % d wt [3, 4]: 31 % d wt
- TL μg (embryo)^−1 [3, 4]: 220 μg (embryo)^−1
- TAG % d wt ([3]; ABA 12 μM, hydrated (H)): 14 % d wt
- TAG μg (embryo)^−1 ([3]; ABA 12 μM, hydrated (H)): 116 μg (embryo)^−1
- TAG/TL % ([3]; ABA 12 μM, hydrated (H)): 79%
- TL % d wt ([3]; ABA 12 μM, hydrated (H)): 18 % d wt
- TL μg (embryo)^−1 ([3]; ABA 12 μM, hydrated (H)): 146 μg (embryo)^−1
- TAG % d wt [3, 5]: 28 % d wt
- TAG μg (embryo)^−1 [3, 5]: 214 μg (embryo)^−1
- TAG/TL % [3, 5]: 82%
- TL % d wt [3, 5]: 35 % d wt
- TL μg (embryo)^−1 [3, 5]: 260 μg (embryo)^−1
- TAG % d wt ([3]; ABA 16 μM, hydrated (H)): 17 % d wt
- TAG μg (embryo)^−1 ([3]; ABA 16 μM, hydrated (H)): 143 μg (embryo)^−1
- TAG/TL % ([3]; ABA 16 μM, hydrated (H)): 80%
- TL % d wt ([3]; ABA 16 μM, hydrated (H)): 22 % d wt
- TL μg (embryo)^−1 ([3]; ABA 16 μM, hydrated (H)): 179 μg (embryo)^−1
- TAG % d wt [3, 6]: 30 % d wt
- TAG μg (embryo)^−1 [3, 6]: 186.2 μg (embryo)^−1
- TAG/TL % [3, 6]: 80%
- TL % d wt [3, 6]: 37 % d wt
- TL μg (embryo)^−1 [3, 6]: 232.5 μg (embryo)^−1
- TAG % d wt ([3]; ABA 24 μM, hydrated (H)): 20 % d wt
- TAG μg (embryo)^−1 ([3]; ABA 24 μM, hydrated (H)): 131 μg (embryo)^−1
- TAG/TL % ([3]; ABA 24 μM, hydrated (H)): 77%
- TL % d wt ([3]; ABA 24 μM, hydrated (H)): 26 % d wt
- TL μg (embryo)^−1 ([3]; ABA 24 μM, hydrated (H)): 170 μg (embryo)^−1
- TAG % d wt [3, 7]: 20 % d wt
- TAG μg (embryo)^−1 [3, 7]: 170 μg (embryo)^−1
- TAG/TL % [3, 7]: 64%
- TL % d wt [3, 7]: 31 % d wt
- TL μg (embryo)^−1 [3, 7]: 264 μg (embryo)^−1
- TAG % d wt ([3]; ABA 32 μM, hydrated (H)): 17 % d wt
- TAG μg (embryo)^−1 ([3]; ABA 32 μM, hydrated (H)): 130 μg (embryo)^−1
- TAG/TL % ([3]; ABA 32 μM, hydrated (H)): 67%
- TL % d wt ([3]; ABA 32 μM, hydrated (H)): 26 % d wt
- TL μg (embryo)^−1 ([3]; ABA 32 μM, hydrated (H)): 193 μg (embryo)^−1
- Fatty acid composition of TAG (%) 18:2^b ([3]; ABA 12 μM, D (81% r.h.)): 15.4%
- Fatty acid composition of TAG (%) 18:2^b ([3]; ABA 12 μM, H): 13.2%
- Fatty acid composition of TAG (%) 18:2^b ([3]; ABA 16 μM, D (81% r.h.)): 15.4%
- Fatty acid composition of TAG (%) 18:2^b ([3]; ABA 16 μM, H): 13.5%
- Fatty acid composition of TAG (%) 18:2^b ([3]; ABA 24 μM, D (81% r.h.)): 15%
- Fatty acid composition of TAG (%) 18:2^b ([3]; ABA 24 μM, H): 14.7%
- Fatty acid composition of TAG (%) 18:2^b ([3]; ABA 32 μM, D (81% r.h.)): 14.9%
- Fatty acid composition of TAG (%) 18:2^b ([3]; ABA 32 μM, H): 14.6%
- Fatty acid composition of TAG (%) ΣC-20, 22^c ([3]; ABA 12 μM, D (81% r.h.)): 1.4%
- Fatty acid composition of TAG (%) ΣC-20, 22^c ([3]; ABA 12 μM, H): 1.4%
- Fatty acid composition of TAG (%) ΣC-20, 22^c ([3]; ABA 16 μM, D (81% r.h.)): 1.5%
- Fatty acid composition of TAG (%) ΣC-20, 22^c ([3]; ABA 16 μM, H): 1%
- Fatty acid composition of TAG (%) ΣC-20, 22^c ([3]; ABA 24 μM, D (81% r.h.)): 1.5%
- Fatty acid composition of TAG (%) ΣC-20, 22^c ([3]; ABA 24 μM, H): 1.2%
- Fatty acid composition of TAG (%) ΣC-20, 22^c ([3]; ABA 32 μM, D (81% r.h.)): 2.5%
- Fatty acid composition of TAG (%) ΣC-20, 22^c ([3]; ABA 32 μM, H): 1.6%
